Three compounds from the NIST ThermoML archive (doi:10.1021/acs.jced.8b01237) can be followed below.

Numbers after ± are expanded uncertainties.

For the data set the following is noted: 100 kPa, Liquid, Concentric cylinders viscometry.

A word on the viscosity: it is the internal friction of a fluid under shear. As to `CCCC[N+]1(C)CCCC1.O=S(=O)([N-]S(=O)(=O)C(F)(F)F)C(F)(F)F`, the viscosity (298.15 K) is 75.6 ± 12 mPa·s, the viscosity (318.15 K) is given as 34.3 ± 5.5 mPa·s and the viscosity (338.15 K) worked out at 18.62 ± 3 mPa·s.

Consider `CCCCCC[N+]1(C)CCCC1.O=S(=O)([N-]S(=O)(=O)C(F)(F)F)C(F)(F)F`, for which the viscosity runs as follows: (298.15 K) 98.3 ± 16 mPa·s; (318.15 K) 41.38 ± 6.6 mPa·s; (338.15 K) 21.88 ± 3.5 mPa·s.

With `CCC[N+]1(C)CCCC1.O=S(=O)([N-]S(=O)(=O)C(F)(F)F)C(F)(F)F`, the viscosity is, setting by setting: (298.15 K) 56.6 ± 9.1 mPa·s; (318.15 K) 26.48 ± 4.2 mPa·s; (338.15 K) 15.55 ± 2.5 mPa·s.
